SMILES strings stand for the structures.

The target of the first experiment is T1, CDK4 (Homo sapiens, UniProt P11802).
T1 construct: made in house
T1 sequence (P11802 whole entry, species assumed): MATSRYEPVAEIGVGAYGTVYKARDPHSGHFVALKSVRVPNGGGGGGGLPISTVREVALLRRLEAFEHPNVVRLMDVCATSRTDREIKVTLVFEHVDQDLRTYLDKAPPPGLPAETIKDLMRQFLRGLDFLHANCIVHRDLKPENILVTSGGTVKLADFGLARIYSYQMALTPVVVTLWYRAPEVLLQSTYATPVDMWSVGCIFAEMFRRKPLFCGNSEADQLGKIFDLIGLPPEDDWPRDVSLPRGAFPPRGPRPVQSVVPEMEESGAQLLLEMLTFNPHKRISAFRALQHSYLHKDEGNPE
T1 sequence (P24385 whole entry partner, species assumed): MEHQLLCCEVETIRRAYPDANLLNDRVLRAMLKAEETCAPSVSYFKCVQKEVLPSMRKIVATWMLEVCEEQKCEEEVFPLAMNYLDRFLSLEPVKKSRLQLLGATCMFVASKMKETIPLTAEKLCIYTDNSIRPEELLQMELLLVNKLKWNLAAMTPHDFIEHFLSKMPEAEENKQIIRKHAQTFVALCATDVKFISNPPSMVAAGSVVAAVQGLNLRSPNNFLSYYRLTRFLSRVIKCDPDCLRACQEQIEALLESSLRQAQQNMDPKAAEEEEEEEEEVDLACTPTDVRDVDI
The experiment is described as follows: CDK4 substrate phosphorylation assay (Rb protein, 33P-ATP). Type of experiment: biochemical. The following applies: Inhibition of CDK4. How it is done: The compounds of the present invention have valuable pharmacologic properties. Different compounds from this class are particularly effective at inhibiting CDK2 and/or CDK4 enzymes at concentrations, which range from 0.0001 to 1 μM and additionally show specificity relative to other kinases. Substrate phosphorylation assays were carried out as follows:
Cyclin D1 and cyclin-dependent kinase 4 were expressed utilizing a baculovirus expression system. The catalytic activity of CDK4 protein was assayed by measuring the phosphorylation of Rb protein. A truncated Rb protein (residues 773-928 of the native retinoblastoma protein, fused to glutathione S-transferase to facilitate purification) was used as the phosphoryl acceptor. The assay conditions were 100 mM HEPES (N-[2-hydroxyethyl]piperzine-N′-[2-ethanesulfonic acid]), pH 7.5, 0.5 μM GST-Rb protein, 1 μCi/mL [^33P]-ATP (1 nM-20 μM), 5-20 mM MgCl2, 2.5 mM EDTA, 1 mM dithiotheitol, 0.2 mg/mL bovine serum albumin, 2% (v/v) dimethyl sulfoxide (DMSO), CDK4 enzyme (5-50 nM) in a final volume of 50 μL. Reactions were incubated for time periods of 10-60 min at 30° C. and terminated by the addition of 50 μL quench (1 mM ATP/100 mM EDTA, pH 7.0). Detection of protein phosphorylation was accomplished by scintillation counting following collection of protein in 96 well plates coated with Glutathione or trapping of protein onto phosphocellulose filters. Counts detected by these methodologies minus the appropriate background were assumed to be proportional to the reaction initial rates. IC50 values were determined by measuring enzyme activity in the presence of different inhibitor concentrations (0.1 nM to 50 μM). IC50s were determined by a least squares fit to the equation CPM=Vmax*(1−([I]/(K+[I])))+nsb, or pIC50s were determined by a fit to the equation CPM=nsb+(Vmax−nsb)/(1+(x/10^x−pIC50)), where nsb are the background counts.
For `COc1cccc(-c2cnc(Nc3ccc(-n4ccnc4)nc3)o2)c1` [Example 32, 6-(1H-imidazol-1-yl)-N-[5-(3-methoxyphenyl)-1,3-oxazol-2-yl]pyridin-3-amine], the IC50 was less than 10000 nM.

With `COc1cccc(-c2cnc(Nc3ccc(N4CCCCC4)nc3)o2)c1` [Example 33, N-[5-(3-methoxyphenyl)-1,3-oxazol-2-yl]-6-piperdin-1-ylpyridin-3-amine], the IC50 is less than 10000 nM.

Consider `CCCN1CCC(c2csc(Nc3ncc(-c4cccc(OC)c4)o3)n2)CC1` [Example 49, 5-(3-methoxyphenyl)-N-[4-(1-propylpiperidin-4-yl)-1,3-thiazol-2-yl]-1,3-oxazol-2-amine], for which the IC50 was less than 1000 nM.

The subject of a further experiment is HUVEC cells. The experiment is described as follows: Human Umbilical Vein Endothelial Cell (HUVEC) proliferation assay (BrdU incorporation). The following applies: growth stimulated with VEGF, 72 hrs, read-out: Inhibition of HUVEC proliferation IC50. The format is cell-based. As for the experimental part:
Human Umbilical Vein Endothelial Cell (HUVEC) Proliferation Assay (BrdU Incorporation) Materials
HUVEC cells and EGM-MV (Endothelial cell growth medium—microvascular) were purchased from Clonetics (San Diego, Calif.). VEGF and bFGF were purchased from R&D Systems (Minneapolis, Minn.). Anti-BrdU antibody was obtained from Chemicon International (Temecula, Calif.).
HUVECs were routinely maintained in EGM-MV medium and were used within passage 7. HUVECs were plated at a density of 2500 cells/well in M199 medium containing 5% FBS (Hyclone) in type I collagen coated plate (Becton Dickinson). The plate was incubated at 37° C. overnight. The medium was removed by aspiration, and test compounds were added to each well in a volume of 0.1 ml/well in serum-free M199 medium. Compound concentrations ranged from 1.5 nM to 30 micromolar. The plate was incubated for 30 min at 37° C. Another 0.1 ml of serum-free M199 medium containing BSA and VEGF (or bFGF) was added to give a final concentration of 0.1% BSA and 10 ng/ml VEGF (0.3 ng/ml bFGF). The plate was incubated at 37° C. for 72 hrs. BrdU was added to each well after the first 48 hrs to give a concentration of 10 micromolar. The colorimetric ELISA assay was performed according to manufacturer's (Roche Molecular Sciences) instructions, with detection by absorbance reading at 450 nm. Results were plotted as concentration of test compound vs. absorbance to give an IC50 value for inhibition of BrdU incorporation.
For `CCS(=O)(=O)c1ccc(OC)c(Nc2ncc(-c3cccc(-c4ccccn4)c3)o2)c1` [Example 178, N-[5-(ethylsulfonyl)-2-methoxyphenyl]-5-(3-pyridin-2-ylphenyl)-1,3-oxazol-2-amine], the IC50 is less than 500 nM.

Turning to `CCS(=O)(=O)c1ccc(OC)c(Nc2ncc(-c3cccc(-c4cncn4C)c3)o2)c1` [Example 179, N-[5-(ethylsulfonyl)-2-methoxyphenyl]-5-[3-(1-methyl-1H-imidazol-5-yl)phenyl]-1,3-oxazol-2-amine], the IC50 is less than 500 nM.

`CCS(=O)(=O)c1ccc(OC)c(Nc2ncc(-c3cccc(-c4ccccc4)c3)o2)c1` [Example 180, 5-(1,1′-biphenyl-3-yl)-N-[5-(ethylsulfonyl)-2-methoxyphenyl]-1,3-oxazol-2-amine]: the IC50 was less than 500 nM.

As to `CCS(=O)(=O)c1ccc(OC)c(Nc2ncc(-c3cccc(-c4ccco4)c3)o2)c1` [Example 181, N-[5-(ethylsulfonyl)-2-methoxyphenyl]-5-[3-(2-furyl)phenyl]-1,3-oxazol-2-amine], the IC50 was less than 500 nM.

Take `CCS(=O)(=O)c1ccc(OC)c(Nc2ncc(-c3cccc(-c4ccc(F)cc4)c3)o2)c1` [Example 183, N-[5-(ethylsulfonyl)-2-methoxyphenyl]-5-(4′-fluoro-1,1′-biphenyl-3-yl)-1,3-oxazol-2-amine]: the IC50 was less than 500 nM.

Consider `CCS(=O)(=O)c1ccc(OC)c(Nc2ncc(-c3cccc(-c4ccc5c(c4)CCO5)c3)o2)c1` [Example 184, 5-[3-(2,3-dihydro-1-benzofuran-5-yl)phenyl]-N-[5-(ethylsulfonyl)-2-methoxyphenyl]-1,3-oxazol-2-amine], for which the IC50 is less than 500 nM.

In the case of `COc1ccc(S(N)(=O)=O)cc1Nc1ncc(-c2cccc(-c3ccccc3)c2)o1` [Example 187, 3-{[5-(1,1′-biphenyl-3-yl)-1,3-oxazol-2-yl]amino}-4-methoxybenzenesulfonamide], the IC50 is less than 500 nM.

Consider `CNS(=O)(=O)c1ccc(OC)c(Nc2ncc(-c3cccc(-c4ccc(F)cc4)c3)o2)c1` [Example 189, 3-{[5-(4′-fluoro-1,1′-biphenyl-3-yl)-1,3-oxazol-2-yl]amino}-4-methoxy-N-methylbenzenesulfonamide], for which the IC50 is less than 500 nM.

As to `CCC(CC)S(=O)(=O)c1ccc(OC)c(Nc2ncc(-c3cccc(-c4ccccn4)c3)o2)c1` [Example 192, N-{5-[(1-ethylpropyl)sulfonyl]-2-methoxyphenyl}-5-(3-pyridin-2-ylphenyl)-1,3-oxazol-2-amine], the IC50 is less than 1000 nM.

On to `COc1ccc(S(=O)(=O)C(C)C)cc1Nc1ncc(-c2cccc(-c3ccccn3)c2)o1` [Example 193, N-[5-(isopropylsulfonyl)-2-methoxyphenyl]-5-(3-pyridin-2-ylphenyl)-1,3-oxazol-2-amine], for which the IC50 was less than 1000 nM.

Take `COc1ccc(S(=O)(=O)C(C)c2ccncc2)cc1Nc1ncc(-c2cccc(-c3ccccc3)c2)o1` (stereo not shown) [Example 196, 5-(1,1′-biphenyl-3-yl)-N-{2-methoxy-5-[(1-pyridin-4-ylethyl)sulfonyl]phenyl}-1,3-oxazol-2-amine]: the IC50 is less than 500 nM.

For `COc1cc(Nc2ncc(-c3cccc(-c4ccccc4)c3)o2)cc(OC)c1OC` [Example 199, 5-(1,1′-biphenyl-3-yl)-N-(3,4,5-trimethoxyphenyl)-1,3-oxazol-2-amine], the IC50 is less than 500 nM.

Regarding `CCS(=O)(=O)c1ccc(OC)c(Nc2ncc(-c3cccc(-c4cccc(F)c4)c3)o2)c1` [Example 207, N-[5-(ethylsulfonyl)-2-methoxyphenyl]-5-(3′-fluoro-1,1′-biphenyl-3-yl)-1,3-oxazol-2-amine], the IC50 was less than 500 nM.

As to `COc1ccc(S(N)(=O)=O)cc1Nc1ncc(-c2cccc(-c3cccc(F)c3)c2)o1` [Example 214, 3-{[5-(3′-fluoro-1,1′-biphenyl-3-yl)-1,3-oxazol-2-yl]amino}-4-methoxybenzenesulfonamide], the IC50 is less than 1000 nM.

Turning to `CCS(=O)(=O)c1ccc(OC)c(Nc2ncc(-c3cccc(-c4ccccc4F)c3)o2)c1` [Example 215, N-[5-(ethylsulfonyl)-2-methoxyphenyl]-5-(2′-fluoro-1,1′-biphenyl-3-yl)-1,3-oxazol-2-amine], the IC50 is less than 500 nM.

On to `CCS(=O)(=O)c1ccc(OC)c(Nc2ncc(-c3cccc(-c4ccccc4Cl)c3)o2)c1` [Example 216, 5-(2′-chloro-1,1′-biphenyl-3-yl)-N-[5-(ethylsulfonyl)-2-methoxyphenyl]-1,3-oxazol-2-amine], for which the IC50 was less than 500 nM.

As for `CCNS(=O)(=O)c1ccc(OC)c(Nc2ncc(-c3cccc(-c4ccccn4)c3)o2)c1` [Example 218, N-ethyl-4-methoxy-3-{[5-(3-pyridin-2-ylphenyl)-1,3-oxazol-2-yl]amino}benzenesulfonamide], the IC50 is less than 500 nM.

Consider `COc1ccc(S(=O)(=O)NCC2CC2)cc1Nc1ncc(-c2cccc(-c3ccccn3)c2)o1` [Example 221, N-(cyclopropylmethyl)-4-methoxy-3-{[5-(3-pyridin-2-ylphenyl)-1,3-oxazol-2-yl]amino}benzenesulfonamide], for which the IC50 was less than 1000 nM.

For the compound `COc1ccc(S(=O)(=O)NC(C)C)cc1Nc1ncc(-c2cccc(-c3cccnc3)c2)o1` [Example 223, N-isopropyl-4-methoxy-3-{[5-(3-pyridin-3-ylphenyl)-1,3-oxazol-2-yl]amino}benzenesulfonamide], the IC50 is less than 500 nM.

Turning to `COc1ccc(S(=O)(=O)NC(C)C)cc1Nc1ncc(-c2cccc(-c3ccccc3)c2)o1` [Example 224, 3-{[5-(1,1′-biphenyl-3-yl)-1,3-oxazoI-2-yl]amino}-N-isopropyl-4-methoxybenzenesulfonamide], the IC50 was less than 500 nM.

`COc1ccc(S(=O)(=O)N(C)C)cc1Nc1ncc(-c2cccc(-c3ccccc3)c2)o1` [Example 225, 3-{[5-(1,1′-biphenyl-3-yl)-1,3-oxazol-2-yl]amino}-4-methoxy-N,N-dimethylbenzenesulfonamide]: the IC50 is less than 500 nM.

In the case of `COc1ccc(S(=O)(=O)NC2CC2)cc1Nc1ncc(-c2cccc(-c3ccccc3)c2)o1` [Example 226, 3-{[5-(1,1′-biphenyl-3-yl)-1,3-oxazol-2-yl]amino}-N-cyclopropyl-4-methoxybenzenesulfonamide], the IC50 is less than 500 nM.

With `CCCCNS(=O)(=O)c1ccc(OC)c(Nc2ncc(-c3cccc(-c4ccccc4)c3)o2)c1` [Example 227, 3-{[5-(1,1′-biphenyl-3-yl)-1,3-oxazol-2-yl]amino}-N-butyl-4-methoxybenzenesulfonamide], the IC50 is less than 1000 nM.

For `CCN(CC)S(=O)(=O)c1ccc(OC)c(Nc2ncc(-c3cccc(-c4ccccc4)c3)o2)c1` [Example 228, 3-{[5-(1,1′-biphenyl-3-yl)-1,3-oxazol-2-yl]amino}-N,N-diethyl-4-methoxybenzenesulfonamide], the IC50 is less than 500 nM.

As to `COc1ccc(S(=O)(=O)NCC2CCCO2)cc1Nc1ncc(-c2cccc(-c3ccccc3)c2)o1` (stereo not shown) [Example 229, 3-{[5-(1,1′-biphenyl-3-yl)-1,3-oxazol-2-yl]amino}-4-methoxy-N-(tetrahydrofuran-2-ylmethyl)benzenesulfonamide], the IC50 is less than 1000 nM.

(Values after patent publication US20070142437A1, “CHEMICAL COMPOUNDS” (priority 2005, published 2007).)
